Test results published in patent US8440675B2, “Potentiator of radiation therapy” (Taiho Pharmaceutical Co., Ltd., priority 2006, dated 2013).
Values joined by “and” are separate entries in the source; they are usually repeats but may differ in a detail not shown here. Equal entries are not always repeated.

Assays:
Assay type in all cases: in vivo
[1] = test system: human lung cancer strain (LC-11); assay: Test Example 4: anti-tumor effect of TAS-102 or FTD with or without X-ray irradiation in LC-11-transplanted nude mice
mouse = assay: No observed adverse effect level on peroral administration to a mouse for 14 days; settings: perorally administered to a mouse for 14 days; TAS-102 dose as reduced to FTD
Description: α,α,α-Trifluorothymidine (hereinafter abbreviated as FTD) and TPI were suspended in a 0.5% (w/v) HPMC solution to adjust their concentrations to 5.0 mg/mL and 2.65 mg/mL, respectively, and the suspension was stirred at room temperature for about 10 minutes. Subsequently, the suspension was ultrasonicated under ice cooling, to thereby prepare a drug liquid with a dose of 50 mg/kg/day (as reduced to FTD). Hereinafter, the drug liquid is referred to as TAS-102. The dose of the TAS-102 liquid is a “no observed adverse effect level” when the liquid is perorally administered to a mouse for 14 days.
FTD was suspended in a 0.5% (w/v) HPMC solution to adjust their concentrations to 5.0 mg/mL, and the suspension was stirred at room temperature for about 10 minutes. Subsequently, the suspension was ultrasonicated under ice cooling, to thereby prepare a FTD drug liquid with a dose of 50 mg/kg/day. The dose of FTD is a “no observed adverse effect level” when the liquid is perorally administered to a mouse for 14 days.

[2] = test system: human lung cancer strain (LC-11); assay: Test Example 2: anti-tumor effect of TPI or TUPI with or without X-ray irradiation in LC-11-transplanted nude mice; settings: for RTV Day 15 / RTV Day 22 / RTV Day 29: mean ± S.D.
Description: (§1) TPI was suspended in a 0.5% (w/v) HPMC solution to adjust the concentration to 1.5 or 5.0 mg/mL, and the suspension was stirred at room temperature for about 10 minutes by means of a stirrer. Subsequently, the suspension was ultrasonicated under ice cooling for about five minutes, to thereby prepare a TPI drug liquid with a dose of 15 mg/kg/day or 50 mg/kg/day.
as §1, with “5-Chloro-6-aminouracil (hereinafter abbreviated as TUPI) was” for “TPI was”, “to” for “to 1.5 or”, “a TUPI” for “a TPI”, “of” for “of 15 mg/kg/day or”
By means of a radiation apparatus (model: MBR-1505R2, product of Hitachi Medical Corp.), mice were irradiated with X-rays under such irradiation conditions that the unit dose to one mouse was adjusted to 2 Gy or 5 Gy, by controlling the distance from the radiation source to the mouse. Specifically, radiation was applied locally to the right femoral region of each mouse where cells of a human tumor strain had been transplanted. In order to avoid systemic irradiation, the mouse was placed in a lead box so that only the right leg was exposed to the radiation.
The human lung cancer strain (LC-11) subcutaneously transplanted into the back of a BALB/cA-nu mouse and grown beforehand were removed, cut into small pieces (about 2×2 mm^2) with scissors in physiological saline, and subcutaneously transplanted into the right femoral region of 5- to 6-week-old mice of the same strain with a transplantation needle. The thus-treated mice were bred for adaptation for at least 1 to 2 weeks and divided into a control group, radiation-only groups, drug-only groups, and radiation-drug combination groups, each group consisting of 6 mice, such that the average tumor volume and the standard deviation (S.D.) were equalized to a maximum extent between groups. Then, administration of the drug and irradiation were started. To each of the mice of the groups subjected to drug administration, the aforementioned TPI liquid or TUPI liquid was perorally administered, by means of an oral administration probe, once a day at a dose of 0.1 mL/10 g-body weight for 14 continuous days. The mice of the groups subjected to radiation were irradiated with X-rays at a dose of 2 Gy or 5 Gy through the aforementioned method within about one hour after administration of the TPI liquid or the TUPI liquid on the test day 1 and day 8. To the cancer-bearing mice of the control group (non-radiation/non-drug administration group) and those of the radiation-only groups, only 0.5% HPMC liquid was perorally administered through the same method for 14 continuous days.
The tumor volume of each mouse of the above groups, which was calculated by the equation 1 in Test Example 1, was determined before the start of the treatment test, and on day 3, day 5, day 8 (1 week after), day 11, day 15 (after termination of administration, 2 weeks after), day 18, day […], day 25, and day 29 (4 weeks after). A relative tumor volume (RTV) to the tumor volume at the start of the test was obtained for each mouse. […] Then, the average tumor growth inhibition rate (IR: %) with respect to the control group was calculated on day 15, day 22, and day 29 (after termination of the treatment period) in a manner similar to that of Test Example 1.

[3] = 50 mg/kg (as reduced to FTD) p.o. once a day for 14 days + X-ray 2 Gy on day 1 and day 8
[4] = 50 mg/kg (as reduced to FTD) p.o. once a day for 14 days, no X-ray
[5] = 50 mg/kg p.o. once a day for 14 days + X-ray 2 Gy on day 1 and day 8
[6] = 50 mg/kg p.o. once a day for 14 days, no X-ray

Compound: O=c1[nH]c(=O)n([C@H]2C[C@H](O)[C@@H](CO)O2)cc1C(F)(F)F [FTD, α,α,α-Trifluorothymidine]
- IR (%) Day 15 [1, 3]: 35.8%
- IR (%) Day 22 [1, 3]: 48.6%
- IR (%) Day 29 [1, 3]: 58.5%
- IR (%) Day 15 [1, 4]: 52% and 51.8%
- IR (%) Day 22 [1, 4]: 57% and 57.2%
- IR (%) Day 29 [1, 4]: 59%
- potentiation of anti-tumor effect of X-ray radiation (in words) ([1]; 50 mg/kg + X-ray 2 Gy): the anti-tumor effect did not increase
- no observed adverse effect level (mouse): 50 mg/kg/day

Compound: Nc1[nH]c(=O)[nH]c(=O)c1Cl [TUPI, 5-Chloro-6-aminouracil, reference compound]
- IR (%) Day 15 [2, 5]: 36.6%
- IR (%) Day 22 [2, 5]: 41.2%
- IR (%) Day 29 [2, 5]: 50.2%
- RTV Day 15 [2, 5]: 3.2 ± 0.8
- RTV Day 22 [2, 5]: 5.3 ± 1.7
- RTV Day 29 [2, 5]: 8.8 ± 2.5
- IR (%) Day 15 [2, 6]: 12.7%
- IR (%) Day 22 [2, 6]: 17.5%
- IR (%) Day 29 [2, 6]: 21.4%
- RTV Day 15 [2, 6]: 4.4 ± 1.8
- RTV Day 22 [2, 6]: 7.4 ± 3.3
- RTV Day 29 [2, 6]: 14.0 ± 6.3
- anti-tumor effect of the drug singly administered (in words) ([2]; 50 mg/kg, no X-ray): virtually no anti-tumor effect
- potentiation of anti-tumor effect of X-ray radiation (in words) ([2]; drug + X-ray 2 Gy): no potentiation of anti-tumor effect was observed
